Test results: paper PMC11080019, “Synthesis and Biological Profiling of Quinolino-Fused 7-Deazapurine Nucleosides” (ACS Omega, 2024)

Columns and labels:
BJ = experiment: MTS cytotoxicity assay, BJ fibroblasts; assay type: cell-based; conditions: Homo sapiens; nonmalignant fibroblasts BJ; top concentration 50 μM
Method: (§1) All the titled nucleosides 14a–g were tested for their in vitro cytotoxic activity. The following cancer cell lines were used for the study: A549 (lung cancer), CCRF-CEM (acute T-lymphoblastic leukemia), HCT116 and HCT116p53^– (colon carcinoma, parental and p53 deficient), K562 (chronic myelogenous leukemia), and U2OS (bone osteosarcoma) using a colorimetric MTS assay.[25] Additionally, HeLa (cervical cancer), HepG2 (hepatocellular liver carcinoma), and HL60 (acute promyelocytic leukemia) cell lines were tested using the luminescent CellTiter-Glo assay. For comparison, nonmalignant fibroblast cell lines (BJ and MRC-5) were included in the MTS assay, whereas noncancerous human dermal fibroblasts (NHDF) were assessed with the CellTiter-Glo assay.[26] Initial screenings were done at 50 μM concentration for the MTS assay and 10 μM for the CellTiter-Glo assay.
(§2) Unless otherwise stated, all reactions were carried out under an argon atmosphere. An oil bath was used for reactions requiring heating. Thin-layer chromatography (TLC) was performed on Merck silica gel 60 F-254 aluminum sheets. Visualization was obtained by UV light (λmax = 254 or 366 nm). High-performance flash chromatography (HPFC) was conducted with a Combi Flash Rf instrument from Teledyne Isco Inc. using SiO2 (particle size 0.040–0.063 mm, 230–400 mesh) from Fluorochem in refillable flash columns or HP C18 Redi Sep Rfgold flash columns with the solvent gradient indicated in the corresponding procedures. Preparative high-pressure liquid chromatography (prep. HPLC) was performed on a Waters 2535 Quaternary Gradient System with a fraction collector. Melting points (m.p.) were measured by Bohunka Šperlichová at Charles University Prague on a Büchi Melting Point B-545 apparatus using open glass capillaries and are uncorrected. Optical rotation of final nucleosides was measured by the analytical laboratory at IOCB Prague using an AUTOPOL IV automatic polarimeter from Rudolph Research Analytical at 20 °C and 589 nm. The sample concentration c is given in g mL^–1. ^1H and ^13C{^1H} NMR spectra were measured on a Bruker Avance III 500 MHz spectrometer at 25 °C in CDCl3 referenced to the residual solvent signal (δH = 7.26 ppm, δC = 77.16 ppm), in deuterated dimethyl sulfoxide (DMSO-d6) referenced to the residual solvent signal (δH = 2.50 ppm, δC = 39.52 ppm], or in D2O with tBuOH-d10 as the external standard [δH = 1.25 ppm, δC = 31.6 ppm]. ^31P NMR NMR spectra were referenced externally to the signal of H3PO4. Coupling constants (J) are given in Hz, and the multiplets are described as s (singlet), d (doublet), t (triplet), q (quartet), m (multiplet), and b (broad). ^13C{^1H} NMR experiments were broadband proton-decoupled and were performed using APT pulse sequence. DFQ-COSY, HSQC, and HMBC experiments were used to assign the ^1H and ^13C NMR signals where required. ROESY experiments were used to confirm the relative stereochemistry of nucleosides 11 and 12. To simplify the assignment, the benzoyl group attached to the 2′-hydroxy group of the ribofuranose ring was given the letter A, the one attached to the 3′-hydroxy group is considered B, and the benzoyl group at 5′-OH is called C (Figure 3). All spectra can be found in Supporting Information S6. In the ROESY spectra for nucleosides 11, 12-β, and 12-α, the important relations for the determination of the stereochemistry are highlighted. Infrared spectra (IR) were recorded on a Bruker ALPHA FT-IR spectrometer with a single-reflection Platinum ATR module. The compounds were measured in their initial state of appearance at 20 °C, and their absorption bands were reported in wavenumbers (ṽ) in the range between 4000 and 400 cm^–1. Intensities are described as strong (s), medium (m), and weak (w). UV/vis spectra were measured on a Varian Cary 100 Bio UV–visible spectrophotometer in the range 250–800 nm using transparent 1.5 mL quartz cuvettes. Fluorescence spectra were recorded on a Fluoromax 4 spectrofluorimeter from HORIBA Scientific. […]

MRC-5 = experiment: MTS cytotoxicity assay, MRC-5 fibroblasts; assay type: cell-based; conditions: Homo sapiens, MRC5; nonmalignant fibroblasts MRC-5; top concentration 50 μM
Method: as §1, §2

A549 (lung cancer) = experiment: MTS cytotoxicity assay, A549; assay type: cell-based; conditions: Homo sapiens
Method: as §1, §2

[1] = system: CCRF-CEM (acute T-lymphoblastic leukemia); experiment: MTS cytotoxicity assay, CCRF-CEM; assay type: cell-based; conditions: for IC50: Homo sapiens
Method: as §1, §2

[2] = system: HCT116 (colon carcinoma, parental); experiment: MTS cytotoxicity assay, HCT116; assay type: cell-based; conditions: Homo sapiens, HCT-116
Method: as §1, §2

[3] = system: HCT116p53– (colon carcinoma, p53 deficient); experiment: MTS cytotoxicity assay, HCT116p53–; assay type: cell-based
Method: as §1, §2

[4] = system: K562 (chronic myelogenous leukemia); experiment: MTS cytotoxicity assay, K562; assay type: cell-based; conditions: Homo sapiens
Method: as §1, §2

U2OS (bone osteosarcoma) = experiment: MTS cytotoxicity assay, U2OS; assay type: cell-based; conditions: Homo sapiens
Method: as §1, §2

[5] = system: noncancerous human dermal fibroblasts (NHDF); experiment: CellTiter-Glo cytotoxicity assay, NHDF; assay type: cell-based; conditions: top concentration 10 μM
Method: as §1, §2

HeLa (cervical cancer) = experiment: CellTiter-Glo cytotoxicity assay, HeLa; assay type: cell-based; conditions: Homo sapiens, top concentration 10 μM
Method: as §1, §2

[6] = system: HepG2 (hepatocellular liver carcinoma); experiment: CellTiter-Glo cytotoxicity assay, HepG2; assay type: cell-based; conditions: Homo sapiens, top concentration 10 μM
Method: as §1, §2

[7] = system: HL60 (acute promyelocytic leukemia); experiment: CellTiter-Glo cytotoxicity assay, HL60; assay type: cell-based; conditions: Homo sapiens, HL-60, top concentration 10 μM
Method: as §1, §2

[8] = system: cancer cell lines and nonmalignant fibroblast cell lines; experiment: In vitro cytotoxic activity across the whole cell line panel (MTS and CellTiter-Glo); assay type: cell-based; conditions: for cytotoxicity against nonmalignant cell lines BJ, MRC-5, and NHDF (in words): MRC-5, NHDF; for cytotoxic activity across tested cell lines (in words): whole panel of tested cell lines
Method: as §1, §2

## OC[C@H]1O[C@@H](n2c3ccc4ncccc4c3c3c(-c4ccco4)ncnc32)[C@H](O)[C@@H]1O [14a, 11-(Furan-2-yl)-7-(β-D-ribofuranosyl)pyrimido[5′,4′:4,5]pyrrolo[3,2-f]quinoline]
BJ
  IC50: > 50 µM
MRC-5
  IC50: > 50 µM
A549 (lung cancer)
  IC50: > 50 µM
[1]
  activity against the CCRF-CEM leukemia line (in words): weak activity
  IC50: 38.5 µM
[2]
  IC50: > 50 µM
[3]
  IC50: > 50 µM
[4]
  IC50: > 50 µM
U2OS (bone osteosarcoma)
  IC50: > 50 µM
[5]
  IC50: > 10 µM
HeLa (cervical cancer)
  IC50: > 10 µM
[6]
  IC50: > 10 µM
[7]
  IC50: > 10 µM

## OC[C@H]1O[C@@H](n2c3ccc4ncccc4c3c3c(-c4cc5ccccc5o4)ncnc32)[C@H](O)[C@@H]1O [14b, 11-(Benzofuran-2-yl)-7-(β-D-ribofuranosyl)pyrimido[5′,4′:4,5]pyrrolo[3,2-f]quinoline]
BJ
  IC50: > 50 µM
MRC-5
  IC50: > 50 µM
A549 (lung cancer)
  IC50: > 50 µM
[1]
  activity against the CCRF-CEM leukemia line (in words): weak activity
  IC50: 18.6 µM
[2]
  IC50: 36 µM
[3]
  IC50: 43.2 µM
[4]
  IC50: > 50 µM
U2OS (bone osteosarcoma)
  IC50: > 50 µM
[5]
  IC50: > 10 µM
HeLa (cervical cancer)
  IC50: > 10 µM
[6]
  IC50: 2.8 µM
[7]
  IC50: > 10 µM
other
  melting point: 124 °C

## Cc1ncnc2c1c1c3cccnc3ccc1n2[C@@H]1O[C@H](CO)[C@@H](O)[C@H]1O [14c, 11-Methyl-7-(β-D-ribofuranosyl)pyrimido[5′,4′:4,5]pyrrolo[3,2-f]quinoline]
BJ
  IC50: > 50 µM
MRC-5
  IC50: > 50 µM
A549 (lung cancer)
  IC50: 26.4 µM
[1]
  IC50: 6.5 µM
[2]
  IC50: 17 µM
[3]
  IC50: 17 µM
[4]
  IC50: 11.9 µM
U2OS (bone osteosarcoma)
  IC50: 13.1 µM
[5]
  IC50: > 10 µM
HeLa (cervical cancer)
  IC50: > 10 µM
[6]
  IC50: > 10 µM
[7]
  IC50: 6.7 µM
[8]
  cytotoxicity against nonmalignant cell lines BJ, MRC-5, and NHDF (in words): no cytotoxicity
  cytotoxic activity across tested cell lines (in words): moderate cytotoxic activity
other
  melting point: 256 °C

## CN(C)c1ncnc2c1c1c3cccnc3ccc1n2[C@@H]1O[C@H](CO)[C@@H](O)[C@H]1O [14d, 11-(N,N-Dimethylamino)-7-(β-D-ribofuranosyl)pyrimido[5′,4′:4,5]pyrrolo[3,2-f]quinoline]
BJ
  IC50: > 50 µM
MRC-5
  IC50: > 50 µM
A549 (lung cancer)
  IC50: > 50 µM
[1]
  IC50: > 50 µM
[2]
  IC50: > 50 µM
[3]
  IC50: > 50 µM
[4]
  IC50: > 50 µM
U2OS (bone osteosarcoma)
  IC50: > 50 µM
[5]
  IC50: > 10 µM
HeLa (cervical cancer)
  IC50: > 10 µM
[6]
  IC50: > 10 µM
[7]
  IC50: > 10 µM
[8]
  cytotoxic activity across tested cell lines (in words): did not show any cytotoxicity whatsoever
other
  melting point: 240 °C

## Nc1ncnc2c1c1c3cccnc3ccc1n2[C@@H]1O[C@H](CO)[C@@H](O)[C@H]1O [14e, 11-Amino-7-(β-D-ribofuranosyl)pyrimido[5′,4′:4,5]pyrrolo[3,2-f]quinoline]
BJ
  IC50: > 50 µM
MRC-5
  IC50: > 50 µM
A549 (lung cancer)
  IC50: > 50 µM
[1]
  IC50: 8.5 µM
[2]
  IC50: 18.9 µM
[3]
  IC50: 17.3 µM
[4]
  IC50: 10 µM
U2OS (bone osteosarcoma)
  IC50: 17.1 µM
[5]
  IC50: > 10 µM
HeLa (cervical cancer)
  IC50: > 10 µM
[6]
  IC50: 8.6 µM
[7]
  IC50: 5.2 µM
[8]
  cytotoxicity against nonmalignant cell lines BJ, MRC-5, and NHDF (in words): no cytotoxicity
  cytotoxic activity across tested cell lines (in words): moderate cytotoxic activity
other
  melting point: 210 to 235 °C (dec.)

## COc1ncnc2c1c1c3cccnc3ccc1n2[C@@H]1O[C@H](CO)[C@@H](O)[C@H]1O [14f, 11-Methoxy-7-(β-D-ribofuranosyl)pyrimido[5′,4′:4,5]pyrrolo[3,2-f]quinoline]
BJ
  IC50: > 50 µM
MRC-5
  IC50: > 50 µM
A549 (lung cancer)
  IC50: 27.4 µM
[1]
  IC50: 8 µM
[2]
  IC50: 9.8 µM
[3]
  IC50: 23.1 µM
[4]
  IC50: 40.2 µM
U2OS (bone osteosarcoma)
  IC50: 17.3 µM
[5]
  IC50: > 10 µM
HeLa (cervical cancer)
  IC50: > 10 µM
[6]
  IC50: > 10 µM
[7]
  IC50: 5.2 µM
[8]
  cytotoxicity against nonmalignant cell lines BJ, MRC-5, and NHDF (in words): no cytotoxicity
  cytotoxic activity across tested cell lines (in words): moderate cytotoxic activity
other
  melting point: 190 to 205 °C (dec.)

## CSc1ncnc2c1c1c3cccnc3ccc1n2[C@@H]1O[C@H](CO)[C@@H](O)[C@H]1O [14g, 11-Methylthio-7-(β-D-ribofuranosyl)pyrimido[5′,4′:4,5]pyrrolo[3,2-f]quinoline]
BJ
  IC50: 36.8 µM
MRC-5
  IC50: 36.8 µM
A549 (lung cancer)
  IC50: 17 µM
[1]
  IC50: 5.1 µM
[2]
  IC50: 9.3 µM
[3]
  IC50: 16.2 µM
[4]
  IC50: 18.6 µM
U2OS (bone osteosarcoma)
  IC50: 15 µM
[5]
  IC50: > 10 µM
HeLa (cervical cancer)
  IC50: > 10 µM
[6]
  IC50: > 10 µM
[7]
  IC50: 9.3 µM
[8]
  cytotoxic activity across tested cell lines (in words): moderate cytotoxic activity
other
  melting point: 228 to 242 °C (dec.)
